Results: ChEMBL document CHEMBL5678818, “Discovery of potent SOS1 inhibitors that block RAS activation via disruption of the RAS-SOS1 interaction” (Proc Natl Acad Sci U S A, 2019)

Legend:
[1] = target: GTPase KRas (Homo sapiens) (UniProt P01116); test: Stabilization of N-terminal His10-tagged wild-type recombinant human KRAS (1 to 169 residues) expressed in Escherichia coli assessed as change in melting temperature at 100 uM with heating from 25 to 85 degreeC by thermal shift assay
[2] = tested on: Tyrosine-protein kinase ABL1 (Homo sapiens), P00519 [Q252H]; test: Inhibition of phosphorylated ABL1 Q252H mutant (unknown origin) assessed as residual activity at 1000 nM by KINOMEscan analysis relative to control
[3] = target: Tyrosine-protein kinase ABL1 (Homo sapiens) (UniProt P00519); test: Inhibition of phosphorylated ABL1 (unknown origin) assessed as residual activity at 1000 nM by KINOMEscan analysis relative to control
[4] = target: Activin receptor type-1-like (Homo sapiens) (UniProt P37023); test: Inhibition of ACVRL1 (unknown origin) assessed as residual activity at 1000 nM by KINOMEscan analysis relative to control
[5] = target: Dual specificity protein kinase CLK2 (Homo sapiens) (UniProt P49760); test: Inhibition of CLK2 (unknown origin) assessed as residual activity at 1000 nM by KINOMEscan analysis relative to control
[6] = target: Ephrin type-A receptor 4 (Homo sapiens) (UniProt P54764); test: Inhibition of EPHA4 (unknown origin) assessed as residual activity at 1000 nM by KINOMEscan analysis relative to control
[7] = target: Vascular endothelial growth factor receptor 3 (Homo sapiens) (UniProt P35916); test: Inhibition of FLT4 (unknown origin) assessed as residual activity at 1000 nM by KINOMEscan analysis relative to control
[8] = target: Mast/stem cell growth factor receptor Kit (Homo sapiens) (UniProt P10721); test: Inhibition of KIT (unknown origin) assessed as residual activity at 1000 nM by KINOMEscan analysis relative to control
[9] = target: Serine/threonine-protein kinase MARK1 (Homo sapiens) (UniProt Q9P0L2); test: Inhibition of MARK1 (unknown origin) assessed as residual activity at 1000 nM by KINOMEscan analysis relative to control
[10] = target: Misshapen-like kinase 1 (Homo sapiens) (UniProt Q8N4C8); test: Inhibition of MINK (unknown origin) assessed as residual activity at 1000 nM by KINOMEscan analysis relative to control
[11] = target: Macrophage-stimulating protein receptor (Homo sapiens) (UniProt Q04912); test: Inhibition of MST1R (unknown origin) assessed as residual activity at 1000 nM by KINOMEscan analysis relative to control
[12] = target: Serine/threonine-protein kinase PAK 6 (Homo sapiens) (UniProt Q9NQU5); test: Inhibition of PAK6 (unknown origin) assessed as residual activity at 1000 nM by KINOMEscan analysis relative to control
[13] = target: Cyclin-dependent kinase 14 (Homo sapiens) (UniProt O94921); test: Inhibition of PFTK1 (unknown origin) assessed as residual activity at 1000 nM by KINOMEscan analysis relative to control
[14] = target: Serine/threonine-protein kinase pim-2 (Homo sapiens) (UniProt Q9P1W9); test: Inhibition of PIM2 (unknown origin) assessed as residual activity at 1000 nM by KINOMEscan analysis relative to control
[15] = target: Ribosomal protein S6 kinase alpha-2 (Homo sapiens) (UniProt Q15349); test: Inhibition of N-terminal RSK3 […] domain 1 (unknown origin) assessed as residual activity at 1000 nM by KINOMEscan analysis relative to control
[16] = target: T1, Mitogen-activated protein kinase kinase kinase 7 (Homo sapiens) (UniProt O43318); test: Inhibition of TAK1 (unknown origin) assessed as residual activity at 1000 nM by KINOMEscan analysis relative to control
T1 sequence (whole entry): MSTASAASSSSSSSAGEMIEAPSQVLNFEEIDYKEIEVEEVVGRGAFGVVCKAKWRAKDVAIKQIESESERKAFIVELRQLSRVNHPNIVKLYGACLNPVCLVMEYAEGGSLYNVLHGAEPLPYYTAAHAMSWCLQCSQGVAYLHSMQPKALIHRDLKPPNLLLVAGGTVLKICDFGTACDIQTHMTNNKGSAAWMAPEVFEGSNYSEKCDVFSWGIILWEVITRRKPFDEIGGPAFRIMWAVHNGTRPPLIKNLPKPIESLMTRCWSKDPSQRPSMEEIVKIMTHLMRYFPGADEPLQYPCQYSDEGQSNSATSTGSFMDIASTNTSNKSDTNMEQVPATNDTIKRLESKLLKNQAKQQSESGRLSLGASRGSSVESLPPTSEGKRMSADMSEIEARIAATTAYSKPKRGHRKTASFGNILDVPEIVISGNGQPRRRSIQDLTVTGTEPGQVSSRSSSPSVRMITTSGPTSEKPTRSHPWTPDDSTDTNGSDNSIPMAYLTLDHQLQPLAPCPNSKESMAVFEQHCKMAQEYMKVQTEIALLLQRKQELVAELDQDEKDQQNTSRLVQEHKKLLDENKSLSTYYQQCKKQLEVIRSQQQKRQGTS

[17] = target: T2, Serine/threonine-protein kinase TBK1 (Homo sapiens) (UniProt Q9UHD2); test: Inhibition of TBK1 (unknown origin) assessed as residual activity at 1000 nM by KINOMEscan analysis relative to control
T2 sequence (whole entry): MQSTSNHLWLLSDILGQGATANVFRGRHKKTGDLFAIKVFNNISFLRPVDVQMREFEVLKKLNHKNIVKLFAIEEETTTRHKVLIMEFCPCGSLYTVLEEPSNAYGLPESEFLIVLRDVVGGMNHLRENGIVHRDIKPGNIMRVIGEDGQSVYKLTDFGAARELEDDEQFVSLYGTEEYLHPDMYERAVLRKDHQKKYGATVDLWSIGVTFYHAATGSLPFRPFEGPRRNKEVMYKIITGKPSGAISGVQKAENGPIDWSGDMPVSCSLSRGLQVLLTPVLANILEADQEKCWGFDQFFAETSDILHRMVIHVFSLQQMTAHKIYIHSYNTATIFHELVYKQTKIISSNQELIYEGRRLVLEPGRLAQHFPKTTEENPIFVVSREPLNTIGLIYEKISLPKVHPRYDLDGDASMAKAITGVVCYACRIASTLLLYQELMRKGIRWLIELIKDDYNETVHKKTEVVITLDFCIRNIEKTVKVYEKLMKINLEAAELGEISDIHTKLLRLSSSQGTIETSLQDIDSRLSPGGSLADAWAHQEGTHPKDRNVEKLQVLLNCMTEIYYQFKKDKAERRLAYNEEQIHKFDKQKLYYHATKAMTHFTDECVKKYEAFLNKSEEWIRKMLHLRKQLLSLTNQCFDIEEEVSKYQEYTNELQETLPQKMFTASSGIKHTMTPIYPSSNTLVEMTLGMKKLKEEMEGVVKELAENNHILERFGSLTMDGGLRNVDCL

[18] = target: Serine/threonine-protein kinase WNK1 (Homo sapiens) (UniProt Q9H4A3); test: Inhibition of WNK1 (unknown origin) assessed as residual activity at 1000 nM by KINOMEscan analysis relative to control

| SMILES | ΔTm [1] | Activity [2] | Activity [3] | Activity [4] | Activity [5] | Activity [6] | Activity [7] | Activity [8] | Activity [9] | Activity [10] | Activity [11] | Activity [12] | Activity [13] | Activity [14] | Activity [15] | Activity [16] | Activity [17] | Activity [18] |
| --- | --- | --- | --- | --- | --- | --- | --- | --- | --- | --- | --- | --- | --- | --- | --- | --- | --- | --- |
| COc1cc2ncnc(N[C@H](C)c3cccc4ccccc34)c2cc1OC | -1.1 °C | 92% | 97% | 100% | 100% | 95% | 100% | 100% | 73% | 74% | 100% | 91% | 100% | 96% | 100% | 85% | 100% | 100% |
| CNCc1ccccc1-c1csc([C@@H](C)Nc2nc(C)nc3cc(OC)c(OC)cc23)c1 [BAY-293] | 0.23 °C | – | – | – | – | – | – | – | – | – | – | – | – | – | – | – | – | – |
| COc1cc2nc(C)nc(N[C@H](C)c3cccc(-c4cn[nH]c4)c3)c2cc1OC | – | 95% | 81% | 99% | 78% | 96% | 90% | 99% | 100% | 100% | 75% | 88% | 93% | 88% | 94% | 100% | 66% | 86% |
